Assay results taken from US12082581B2, “Acrylate derivative, use and production intermediate compound of the same” (SUMITOMO CHEMICAL COMPANY, LIMITED, priority 2019, dated 2024).

System: cabbage moth (Plutella xylostella)
Assay: Cabbage moth mortality test on sprayed cabbage seedling (Test method 23)
Type: in vivo
Conditions: 500 ppm, 20 mL/seedling sprayed on cabbage; 5 second instar larvae; after 5 days
Protocol: The present compound is made to a formulation according to a similar method to that described in the Formulation Example 6, and thereto is added water containing 0.03 v/v % of a spreader to prepare a diluted solution containing a prescribed concentration of the test compound.
Cabbage (Brassicae oleracea) seedling (on the developmental stage of the second to third true leaf) is planted in a cup, and the diluted solutions are sprayed into the seedling at a ratio of 20 mL/seedling. Thereafter, the stem and leaf of the seedling is cut out and is then installed into the container that is covered with the filter paper. Five (5) cabbage moth (Plutella xylostella) at the second instar larval stages are released into the cup. After 5 days, the surviving insects are counted, and the mortality of insects is calculated by the following equation. Mortality (%)={1−the number of the surviving insects/5}×100

COC=C(Cc1cc(OCc2ccccc2)ccc1C)C(=O)OC [compound 28]
mortality: 100%
